# Experiments:
# Type in all cases: functional
# Streptococcus pneumoniae [1] = experiment: Antibacterial activity against erythromycin-susceptible Streptococcus pneumoniae ATCC 49619 by the broth microdilution method
# Streptococcus pneumoniae [2] = experiment: Antibacterial activity against erythromycin-resistant Streptococcus pneumoniae B1 expressing erm gene by the broth microdilution method
# Streptococcus pneumoniae [3] = experiment: Antibacterial activity against erythromycin-resistant Streptococcus pneumoniae A22072 expressing mef gene by the broth microdilution method
# Streptococcus pneumoniae [4] = experiment: Antibacterial activity against erythromycin-resistant Streptococcus pneumoniae AB11 expressing erm and mef gene by the broth microdilution method
# Staphylococcus aureus [5] = experiment: Antibacterial activity against erythromycin-susceptible Staphylococcus aureus ATCC 25923 by the broth microdilution method
# Staphylococcus aureus [6] = experiment: Antibacterial activity against penicillin-resistant Staphylococcus aureus by the broth microdilution method
# Staphylococcus aureus [7] = experiment: Antibacterial activity against […] Staphylococcus aureus ATCC 29213 by the broth microdilution method
Compound,MIC (Streptococcus pneumoniae [1]) [µg/mL],MIC (Streptococcus pneumoniae [2]) [µg/mL],MIC (Streptococcus pneumoniae [3]) [µg/mL],MIC (Streptococcus pneumoniae [4]) [µg/mL],MIC (Staphylococcus aureus [5]) [µg/mL],MIC (Staphylococcus aureus [6]) [µg/mL],MIC (Staphylococcus aureus [7]) [µg/mL]
CC[C@H]1OC(=O)[C@H](C)[C@@H](O[C@H]2C[C@@](C)(OC)[C@@H](OC(=O)NNC(=O)c3ccc(OC)cc3)[C@H](C)O2)[C@H](C)[C@@H](O[C@@H]2O[C@H](C)C[C@H](N(C)C)[C@H]2O)[C@](C)(O)C[C@@H](C)CN(C)[C@H](C)[C@H]2OC(=O)O[C@@]21C,4,16,0.25,64,2,8,32
CC[C@H]1OC(=O)[C@H](C)[C@@H](O[C@H]2C[C@@](C)(OC)[C@@H](OC(=O)NNC(=O)c3ccccc3OC)[C@H](C)O2)[C@H](C)[C@@H](O[C@@H]2O[C@H](C)C[C@H](N(C)C)[C@H]2O)[C@](C)(O)C[C@@H](C)CN(C)[C@H](C)[C@H]2OC(=O)O[C@@]21C,1,8,0.5,32,4,16,16
CC[C@H]1OC(=O)[C@H](C)[C@@H](O[C@H]2C[C@@](C)(OC)[C@@H](OC(=O)NNC(=O)c3ccc(OC)c(OC)c3)[C@H](C)O2)[C@H](C)[C@@H](O[C@@H]2O[C@H](C)C[C@H](N(C)C)[C@H]2O)[C@](C)(O)C[C@@H](C)CN(C)[C@H](C)[C@H]2OC(=O)O[C@@]21C,1,32,0.25,64,4,1,4
CC[C@H]1OC(=O)[C@H](C)[C@@H](O[C@H]2C[C@@](C)(OC)[C@@H](OC(=O)NNC(=O)c3ccc(F)cc3)[C@H](C)O2)[C@H](C)[C@@H](O[C@@H]2O[C@H](C)C[C@H](N(C)C)[C@H]2O)[C@](C)(O)C[C@@H](C)CN(C)[C@H](C)[C@H]2OC(=O)O[C@@]21C,4,32,1,64,4,4,32
CC[C@H]1OC(=O)[C@H](C)[C@@H](O[C@H]2C[C@@](C)(OC)[C@@H](OC(=O)NNC(=O)c3ccc(Cl)cc3)[C@H](C)O2)[C@H](C)[C@@H](O[C@@H]2O[C@H](C)C[C@H](N(C)C)[C@H]2O)[C@](C)(O)C[C@@H](C)CN(C)[C@H](C)[C@H]2OC(=O)O[C@@]21C,1,32,0.25,64,2,16,4
CC[C@H]1OC(=O)[C@H](C)[C@@H](O[C@H]2C[C@@](C)(OC)[C@@H](OC(=O)NNC(=O)c3ccc(Br)cc3)[C@H](C)O2)[C@H](C)[C@@H](O[C@@H]2O[C@H](C)C[C@H](N(C)C)[C@H]2O)[C@](C)(O)C[C@@H](C)CN(C)[C@H](C)[C@H]2OC(=O)O[C@@]21C,1,4,0.12,16,2,4,1
CC[C@H]1OC(=O)[C@H](C)[C@@H](O[C@H]2C[C@@](C)(OC)[C@@H](OC(=O)NNC(=O)c3ccc(Cl)cc3Cl)[C@H](C)O2)[C@H](C)[C@@H](O[C@@H]2O[C@H](C)C[C@H](N(C)C)[C@H]2O)[C@](C)(O)C[C@@H](C)CN(C)[C@H](C)[C@H]2OC(=O)O[C@@]21C,1,4,0.25,16,4,16,16
CC[C@H]1OC(=O)[C@H](C)[C@@H](O[C@H]2C[C@@](C)(OC)[C@@H](OC(=O)NNC(=O)c3ccc([N+](=O)[O-])cc3)[C@H](C)O2)[C@H](C)[C@@H](O[C@@H]2O[C@H](C)C[C@H](N(C)C)[C@H]2O)[C@](C)(O)C[C@@H](C)CN(C)[C@H](C)[C@H]2OC(=O)O[C@@]21C,0.25,16,1,32,4,4,4
CC[C@H]1OC(=O)[C@H](C)[C@@H](O[C@H]2C[C@@](C)(OC)[C@@H](OC(=O)NNC(=O)c3cc([N+](=O)[O-])cc([N+](=O)[O-])c3)[C@H](C)O2)[C@H](C)[C@@H](O[C@@H]2O[C@H](C)C[C@H](N(C)C)[C@H]2O)[C@](C)(O)C[C@@H](C)CN(C)[C@H](C)[C@H]2OC(=O)O[C@@]21C,0.5,16,0.25,32,4,4,4
CC[C@H]1OC(=O)[C@H](C)[C@@H](O[C@H]2C[C@@](C)(OC)[C@@H](OC(=O)NCCNC(=O)c3ccc(OC)cc3)[C@H](C)O2)[C@H](C)[C@@H](O[C@@H]2O[C@H](C)C[C@H](N(C)C)[C@H]2O)[C@](C)(O)C[C@@H](C)CN(C)[C@H](C)[C@H]2OC(=O)O[C@@]21C,4,32,4,64,4,4,16
CC[C@H]1OC(=O)[C@H](C)[C@@H](O[C@H]2C[C@@](C)(OC)[C@@H](OC(=O)NCCNC(=O)c3ccccc3OC)[C@H](C)O2)[C@H](C)[C@@H](O[C@@H]2O[C@H](C)C[C@H](N(C)C)[C@H]2O)[C@](C)(O)C[C@@H](C)CN(C)[C@H](C)[C@H]2OC(=O)O[C@@]21C,0.5,32,8,64,4,64,8
CC[C@H]1OC(=O)[C@H](C)[C@@H](O[C@H]2C[C@@](C)(OC)[C@@H](OC(=O)NCCNC(=O)c3ccc(OC)c(OC)c3)[C@H](C)O2)[C@H](C)[C@@H](O[C@@H]2O[C@H](C)C[C@H](N(C)C)[C@H]2O)[C@](C)(O)C[C@@H](C)CN(C)[C@H](C)[C@H]2OC(=O)O[C@@]21C,2,32,4,64,4,8,32
CC[C@H]1OC(=O)[C@H](C)[C@@H](O[C@H]2C[C@@](C)(OC)[C@@H](OC(=O)NCCNC(=O)c3ccc(C)cc3)[C@H](C)O2)[C@H](C)[C@@H](O[C@@H]2O[C@H](C)C[C@H](N(C)C)[C@H]2O)[C@](C)(O)C[C@@H](C)CN(C)[C@H](C)[C@H]2OC(=O)O[C@@]21C,1,8,0.25,16,4,4,16
CC[C@H]1OC(=O)[C@H](C)[C@@H](O[C@H]2C[C@@](C)(OC)[C@@H](OC(=O)NCCNC(=O)c3ccc(F)cc3)[C@H](C)O2)[C@H](C)[C@@H](O[C@@H]2O[C@H](C)C[C@H](N(C)C)[C@H]2O)[C@](C)(O)C[C@@H](C)CN(C)[C@H](C)[C@H]2OC(=O)O[C@@]21C,1,4,1,32,16,2,16
CC[C@H]1OC(=O)[C@H](C)[C@@H](O[C@H]2C[C@@](C)(OC)[C@@H](OC(=O)NCCNC(=O)c3ccc(Cl)cc3)[C@H](C)O2)[C@H](C)[C@@H](O[C@@H]2O[C@H](C)C[C@H](N(C)C)[C@H]2O)[C@](C)(O)C[C@@H](C)CN(C)[C@H](C)[C@H]2OC(=O)O[C@@]21C,0.5,8,1,32,4,2,16
